Experimental findings from PMC12610274, “Identification of Marrubiin as a Cathepsin C Inhibitor for Treating Rheumatoid Arthritis” (Molecules, 2025) are described below.

Assay [1] has as its target T1, CTSC (Homo sapiens, UniProt P53634). The experiment in a line: Human recombinant CTSC isolated enzyme assay. It counts as biochemical. Further details: purchased R&D Systems. To be noted: human recombinant CTSC, cell-free, 12-point dose-response; read-out: CTSC Enz (IC50: nM). On the procedure: Both recombinant CTSL and CTSC for in vitro cell-free-based enzymatic activity assay can be purchased from R&D Systems (Minneapolis, MN, USA), a biotechnology company. According to the standardized procedures and material ratios provided by R&D Systems, prepare the activation solution (25 mM MES + 5 mM DTT, pH 6.0) and the assay solution (25 mM MES + 50 mM NaCl + 5 mM DTT, pH 6.0) in advance for later use. Dilute the detection substrate H-Gly-Arg-AMC to a 200 µM solution with the assay solution for standby. Prepare the working solution of compounds to be tested using the assay solution, with the concentration of working solution being 10 times the final test concentration. Dilute CTSC and CTSL, respectively, with cold activation solution. Thoroughly mix the two activation solutions containing the proteins to achieve final concentrations of 300 nM for CTSL and 440 nM for CTSC. After co-incubation for 1 h, the activated CTSC treated with CTSL can be used for the enzymatic activity inhibition efficacy test of compounds. Dilute the activated CTSC to 4.4 nM with cold assay buffer. Incubate 4 μL of the activated CTSC with 1 μL of the compound working solution (test group) or 1 μL of blank assay solution (control group) at room temperature for 3 h. Then, add 5 μL of the detection substrate to achieve a final concentration of 100 μM. Mix 5 µL each of the assay solution and the substrate solution as the blank group. After 1 h, the absorbance of detection substrate was measured using a multifunctional microplate reader at excitation/emission wavelengths of 380 nm/460 nm. The inhibitory efficacy of molecules on enzyme activity was calculated based on the absorbance difference between test group and control group. […] Each group of tests mentioned above was independently repeated at least 3 times, and IC50 values were calculated using SPSS 10.0.
Target sequence in this assay (P53634 25-134 limits assumed): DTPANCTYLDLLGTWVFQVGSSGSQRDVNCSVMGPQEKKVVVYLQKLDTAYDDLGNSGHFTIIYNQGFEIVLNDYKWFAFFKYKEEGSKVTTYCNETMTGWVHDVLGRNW
Target sequence in this assay (P53634 231-394 limits assumed): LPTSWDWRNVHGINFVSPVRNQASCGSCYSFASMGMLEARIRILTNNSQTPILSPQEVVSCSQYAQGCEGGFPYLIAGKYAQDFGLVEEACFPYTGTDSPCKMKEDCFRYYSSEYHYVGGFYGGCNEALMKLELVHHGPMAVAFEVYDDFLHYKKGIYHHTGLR
Target sequence in this assay (P53634 395-463 limits assumed): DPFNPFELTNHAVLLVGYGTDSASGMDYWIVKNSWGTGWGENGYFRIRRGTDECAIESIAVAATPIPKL

Assay [2] has as its target T1, CTSC. The experiment in a line: Cellular thermal shift assay (CETSA) in U937 cells. It counts as binding. On the set-up: endogenous in cells; host or cells: U937. To be noted: DMSO control 49 °C. The protocol: The Western blot experiments in this study were performed as described below. Cells in the logarithmic growth phase were collected in appropriate numbers according to different experimental purposes. After being thoroughly washed with phosphate-buffered saline and centrifuged, the cell pellets were resuspended in phosphate-buffered saline to obtain single-cell suspensions. Cells were fully lysed using RIPA buffer (Beyotime, P0013B) supplemented with EDTA-free protease and phosphatase inhibitor (Abcam, ab201120). Total cellular protein solutions were obtained after centrifugation to remove cell debris. The isolated proteins were quantified using the BeyoBCA protein assay kit (Beyotime, P0399M) following the operational protocol. The quantified protein samples were thoroughly mixed with protein loading buffer, boiled on a dry bath for 5 min, and then cooled to room temperature for Western blot analysis. […] Finally, enhanced chemiluminescent horseradish peroxidase substrate (Tanon Science & Technology Co., Ltd., Shanghai, China, 180-506) was used to visualize protein bands on a ChemiDoc XRS system (Bio-Rad Laboratories, Inc., Hercules, CA, USA), and the protein bands were quantified using Image Lab analysis software (Version 6.1) (Bio-Rad). […]
Target sequence in this assay (P53634 25-463): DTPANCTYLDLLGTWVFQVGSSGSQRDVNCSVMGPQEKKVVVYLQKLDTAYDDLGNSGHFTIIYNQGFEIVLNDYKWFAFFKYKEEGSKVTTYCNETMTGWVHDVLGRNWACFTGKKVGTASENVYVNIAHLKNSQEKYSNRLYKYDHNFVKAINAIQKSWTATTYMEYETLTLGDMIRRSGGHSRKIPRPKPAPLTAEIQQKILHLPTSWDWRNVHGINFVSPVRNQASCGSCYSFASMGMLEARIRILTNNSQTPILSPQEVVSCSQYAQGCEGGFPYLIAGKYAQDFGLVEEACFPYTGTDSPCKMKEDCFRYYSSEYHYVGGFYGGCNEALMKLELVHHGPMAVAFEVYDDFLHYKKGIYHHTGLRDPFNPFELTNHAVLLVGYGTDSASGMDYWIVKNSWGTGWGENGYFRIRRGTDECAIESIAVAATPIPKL

Assay [3] addresses T2, NE (Homo sapiens, UniProt P08246).
T2 construct: purchased MedChemExpress
The experiment in a line: Recombinant NSPs isolated enzyme assay, NE. To be noted: read-out: NE Enz (IC50: μM). In kind it is biochemical. From the text:
The protocol for evaluating the inhibitory potency of compounds against other cathepsins referred to the CTSC activity assay. Recombinant human CTSB, CTSL, CTSS and CTSK for testing were also purchased from R&D Systems Biotechnology Company. Recombinant human Cat G, NE, and PR3 For testing were purchased from MedChemExpress. A multi-functional microplate reader was used to measure the absorption of Z-Leu-Arg-AMC at excitation/emission wavelengths of 380/460 nm to assess the activity changes of CTSB and CTSL, while the absorption of MCA-Arg-Pro-Lys-Pro-Val-Glu-NVAL-Trp-Arg-Lys(DNP)-NH2 at 320/405 nm was measured to evaluate the activity changes of CTSS and CTSK. Different assay buffers were prepared for diluting samples and measuring the activities of specific NSPs: a buffer containing 50 mM Tris and 750 mM NaCl (pH 7.4) was used for NE and PR3; a buffer containing 50 mM Tris, 750 mM NaCl, 5 mM EDTA (pH 7.4) was used for Cat G; and a buffer containing 25 mM MES, 50 mM NaCl, 5 mM DTT (pH 6.0) was used for CTSC. Synthetic substrates were employed to assess the activities of NSPs and CTSC: H-Gly-Arg-AMC for CTSC, N-MeSuc-Ala-Ala-Pro-Val-pNA for NE, aminobenzoyl-Val-Ala-Asp-Cys-Ala-Asp-Gln-ethylenediamine 2,4-dinitrophenyl for PR3, and N-Suc-Ala-Ala-Pro-Phe-pNA for Cat G. Each group of tests was independently repeated at least 3 times, and IC50 values were calculated using SPSS 10.0.

T2 sequence (P08246 30-267): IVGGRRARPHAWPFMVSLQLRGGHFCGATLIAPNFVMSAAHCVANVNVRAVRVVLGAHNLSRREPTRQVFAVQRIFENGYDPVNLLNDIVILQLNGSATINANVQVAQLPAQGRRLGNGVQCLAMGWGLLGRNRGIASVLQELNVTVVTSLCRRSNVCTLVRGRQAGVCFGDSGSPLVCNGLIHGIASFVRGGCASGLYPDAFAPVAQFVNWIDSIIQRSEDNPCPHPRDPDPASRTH

As a reminder, the IC50 is the concentration at which inhibition is half-maximal. Take `C[C@@H]1C[C@H]2OC(=O)[C@@]3(C)CCC[C@@](C)([C@@H]23)[C@@]1(O)CCc1ccoc1` [Marrubiin, marrubiin]: the results for the IC50 in assay [1] and in assay [3] were 57.5 ± 1.3 nM and more than 10 µM, respectively. Besides, the “temperature at which significant CTSC degradation occurred” value in assay [2] (10 μM) is “approximately 61 °C”; in assay [2] (20 μM), approximately 67 °C.
